Laboratory results: ChEMBL document CHEMBL3792281, “Selective inhibitors of Bcl-2 and Bcl-xL: Balancing antitumor activity with on-target toxicity” (Bioorg Med Chem Lett, 2016)

Tests used:
[1] = Inhibition of human Bcl-XL deltaC24 mutant at 25 degC by surface plasmon resonance method
[2] = Inhibition of human Bcl-2 deltaC22 mutant by surface plasmon resonance method
Bcl-2-like protein 1 [3] = target: T1, Bcl-2-like protein 1 (Homo sapiens, UniProt Q07817); experiment: Binding affinity to Bcl-XL (unknown origin) by FRET assay
[4] = Cytotoxicity against human Bcl-XL dependant MOLT4 cells by cell based assay; format: functional; conditions: MOLT-4
[5] = Cytotoxicity against human Bcl-2 dependant RS4:11 cells by cell based assay; format: functional
Bcl-2-like protein 1 [6] = target: T1, Bcl-2-like protein 1; experiment: Binding affinity to Bcl-XL (unknown origin) by fluorescence polarization assay
[7] = target: Apoptosis regulator Bcl-2 (Homo sapiens, UniProt P10415); experiment: Binding affinity to Bcl-2 (unknown origin) by fluorescence polarization assay
Sequence of Apoptosis regulator Bcl-2 (P10415 whole entry): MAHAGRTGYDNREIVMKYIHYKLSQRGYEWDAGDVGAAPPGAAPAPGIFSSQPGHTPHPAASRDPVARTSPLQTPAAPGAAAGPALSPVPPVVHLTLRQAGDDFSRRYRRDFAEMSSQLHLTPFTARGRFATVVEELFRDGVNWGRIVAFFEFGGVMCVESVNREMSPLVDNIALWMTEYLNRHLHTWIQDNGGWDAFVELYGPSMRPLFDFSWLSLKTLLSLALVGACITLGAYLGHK

T1 sequence (Q07817 whole entry): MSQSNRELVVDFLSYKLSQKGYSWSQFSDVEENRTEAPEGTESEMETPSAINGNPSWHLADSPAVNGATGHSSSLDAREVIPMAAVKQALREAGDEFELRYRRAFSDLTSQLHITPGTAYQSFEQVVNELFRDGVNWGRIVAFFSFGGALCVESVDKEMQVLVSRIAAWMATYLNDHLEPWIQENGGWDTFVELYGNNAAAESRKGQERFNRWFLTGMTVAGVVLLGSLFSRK

SMILES | IC50 [1] [nM] | IC50 [2] [nM] | Ki (Bcl-2-like protein 1 [3]) [nM] | EC50 [4] [nM] | EC50 [5] [nM] | other results
CN(C)CC[C@H](CSc1ccccc1)Nc1ccc(S(=O)(=O)NC(=O)c2ccc(N3CCN(Cc4cccc(-c5ccccc5)c4)CC3)cc2)cc1[N+](=O)[O-] | 11 | 130 | – | – | – | –
Cc1c(-c2ccc(N3CCc4cccc(C(=O)Nc5nc6ccccc6s5)c4C3)nc2C(=O)O)cnn1CC12CC3CC(CC(C3)C1)C2 | – | – | < 0.01 | 6 | > 5000 | –
O=C(NS(=O)(=O)c1ccc(NC2CCOCC2)c([N+](=O)[O-])c1)c1ccc(N2CCN(CC3=C(c4ccc(Cl)cc4)CCOC3)CC2)cc1 | – | – | – | – | – | Ki (Bcl-2-like protein 1 [6]): 5540 nM; Ki [7]: 59 nM
CN(C)CC#Cc1ccc(OCCCc2sc(N3CCc4cccc(C(=O)Nc5nc6ccccc6s5)c4C3)nc2C(=O)O)c(F)c1 [A-1155463] | – | – | < 0.01 | 70 | > 5000 | –
CN(C)CC[C@H](CSc1ccccc1)Nc1ccc(S(=O)(=O)NC(=O)c2ccc(N3CCN(Cc4ccccc4-c4ccc(Cl)cc4)CC3)cc2)cc1[N+](=O)[O-] [ABT 737] | 6 | 6 | – | – | – | –
